According to BigSolDB 2.1:

O=C(O)Cc1ccccc1[N+](=O)[O-]
solubility (mole fraction)
Details | 283.15 K | 288.15 K | 293.15 K | 298.15 K | 303.15 K | 308.15 K | 313.15 K | 318.15 K | 323.15 K | 328.15 K
in 1,4-dioxane | – | 0.0461 | 0.0535 | 0.0618 | 0.0732 | 0.0853 | 0.1 | 0.118 | 0.139 | 0.162
in DMF | 0.18 | 0.202 | 0.222 | 0.249 | 0.277 | 0.308 | 0.338 | 0.371 | 0.406 | 0.445
in acetonitrile | 0.0143 | 0.016 | 0.0184 | 0.0219 | 0.0255 | 0.0304 | 0.0365 | 0.0437 | 0.0515 | 0.0604
in cyclohexane | 8.88e-06 | 1.22e-05 | 1.65e-05 | 2.23e-05 | 2.94e-05 | 3.79e-05 | 4.9e-05 | 6.35e-05 | 8.34e-05 | 0.000108
in ethanol | 0.0273 | 0.0317 | 0.0367 | 0.0432 | 0.0516 | 0.0627 | 0.0743 | 0.0878 | 0.104 | 0.123
in ethyl acetate | 0.0285 | 0.0323 | 0.0383 | 0.0453 | 0.055 | 0.0651 | 0.0764 | 0.0877 | 0.0979 | 0.11
in ethylene glycol | 0.0148 | 0.0175 | 0.0208 | 0.0245 | 0.0287 | 0.0337 | 0.0399 | 0.0473 | 0.0561 | 0.0664
in isobutanol | 0.00864 | 0.0106 | 0.0134 | 0.0169 | 0.0218 | 0.0271 | 0.033 | 0.0394 | 0.0465 | 0.0573
in isopropanol | 0.0154 | 0.0182 | 0.0216 | 0.0253 | 0.0302 | 0.035 | 0.0414 | 0.0482 | 0.0564 | 0.0665
in methanol | 0.0409 | 0.0455 | 0.0521 | 0.0584 | 0.0673 | 0.0769 | 0.0887 | 0.102 | 0.117 | 0.134
in n-butanol | 0.0168 | 0.0198 | 0.0233 | 0.0271 | 0.0323 | 0.0382 | 0.0451 | 0.0533 | 0.0618 | 0.0742
in n-propanol | 0.0181 | 0.0219 | 0.0263 | 0.0312 | 0.037 | 0.0441 | 0.0533 | 0.0637 | 0.0767 | 0.0934
in water | 5.33e-05 | 7.8e-05 | 0.000105 | 0.000141 | 0.000185 | 0.000248 | 0.000321 | 0.000426 | 0.000554 | 0.000727
